SMILES strings stand for the structures.

The target in the test is T1, human full-length MKNK1 (Homo sapiens, UniProt Q9BUB5, T385D).
T1 construct: GST (N); purchased Carna Biosciences 02-145; host or cells: insect cells (baculovirus expression system)
T1 sequence (Q9BUB5 1-424 isoform Q9BUB5-2 T344D): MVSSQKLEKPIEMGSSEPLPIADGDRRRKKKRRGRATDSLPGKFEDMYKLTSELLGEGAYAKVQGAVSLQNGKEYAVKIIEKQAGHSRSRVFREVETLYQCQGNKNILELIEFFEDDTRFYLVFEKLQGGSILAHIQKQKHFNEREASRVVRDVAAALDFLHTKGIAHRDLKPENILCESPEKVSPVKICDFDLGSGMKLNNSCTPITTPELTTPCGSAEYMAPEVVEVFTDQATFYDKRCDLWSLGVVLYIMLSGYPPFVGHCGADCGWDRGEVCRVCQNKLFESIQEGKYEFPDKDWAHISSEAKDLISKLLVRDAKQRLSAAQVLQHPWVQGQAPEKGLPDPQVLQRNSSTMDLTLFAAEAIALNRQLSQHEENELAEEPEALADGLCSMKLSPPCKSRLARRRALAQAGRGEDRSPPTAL
Kind of test: MKNK1 kinase high ATP assay (TR-FRET). Conditions: high ATP (2 mM final), 15 min preincubation with enzyme, 30 min reaction at 22° C. Format: biochemical. As for the experimental part: MKNK1-inhibitory activity at high ATP of compounds of the present invention after their preincubation with MKNK1 was quantified employing the TR-FRET-based MKNK1 high ATP assay as described in the following paragraphs.
A recombinant fusion protein of Glutathione-S-Transferase (GST, N-terminally) and human full-length MKNK1 (amino acids 1-424 and T344D of accession number BAA 19885.1), expressed in insect cells using baculovirus expression system and purified via glutathione sepharose affinity chromatography, was purchased from Carna Biosciences (product no 02-145) and used as enzyme. As substrate for the kinase reaction the biotinylated peptide biotin-Ahx-IKKRKLTRRKSLKG (C-terminus in amide form) was used, which can be purchased e.g. from the company Biosyntan (Berlin-Buch, Germany).
For the assay 50 nL of a 100 fold concentrated solution of the test compound in DMSO was pipetted into a black low volume 384 well microtiter plate (Greiner Bio-One, Frickenhausen, Germany), 2 μL of a solution of MKNK1 in aqueous assay buffer [50 mM HEPES pH 7.5, 5 mM MgCl2, 1.0 mM dithiothreitol, 0.005% (v/v) Nonidet-P40 (Sigma)] was added and the mixture was incubated for 15 min at 22° C. to allow pre-binding of the test compounds to the enzyme before the start of the kinase reaction. Then the kinase reaction was started by the addition of 3 μL of a solution of adenosine-tri-phosphate (ATP, 3.3 mM=>final conc. in the 5 μL assay volume is 2 mM) and substrate (0.1 μM=>final conc. in the 5 μL assay volume is 0.06 μM) in assay buffer and the resulting mixture was incubated for a reaction time of 30 min at 22° C. The concentration of MKNK1 was adjusted depending of the activity of the enzyme lot and was chosen appropriate to have the assay in the linear range, typical concentrations were in the range of 0.003 μg/mL. The reaction was stopped by the addition of 5 μL of a solution of TR-FRET detection reagents (5 nM streptavidine-XL665 [Cisbio Bioassays, Codolet, France] and 1 nM anti-ribosomal protein S6 (pSer236)-antibody from Invitrogen [#44921G] and 1 nM LANCE EU-W1024 Labeled ProteinG [Perkin-Elmer, product no. AD0071]) in an aqueous EDTA-solution (100 mM EDTA, 0.1% (w/v) bovine serum albumin in 50 mM HEPES pH 7.5).
The resulting mixture was incubated for 1 h at 22° C. to allow the formation of complex between the phosphorylated biotinylated peptide and the detection reagents. Subsequently the amount of phosphorylated substrate was evaluated by measurement of the resonance energy transfer from the Eu-chelate to the streptavidine-XL. Therefore, the fluorescence emissions at 620 nm and 665 nm after excitation at 350 nm were measured in a TR-FRET reader, e.g. a Rubystar (BMG Labtechnologies, Offenburg, Germany) or a Viewlux (Perkin-Elmer). The ratio of the emissions at 665 nm and at […] was taken as the measure for the amount of phosphorylated substrate. The data were normalised (enzyme reaction without inhibitor=0% inhibition, all other assay components but no enzyme=100% inhibition).
(Time-resolved FRET reads energy transfer from a long-lived donor to a nearby acceptor.)
For the molecule `COc1cc2[nH]ncc2cc1Nc1ncnc2[nH]c(C(=O)N3CCCC3)c(Br)c12` [Example 61, {5-Bromo-4-[(6-methoxy-1H-indazol-5-yl)amino]-7H-pyrrolo[2,3-d]pyrimidin-6-yl}(pyrrolidin-1-yl)methanone], the IC50 (as a rule, the concentration needed to halve the response being measured) is 1 nM.
`COc1cc2[nH]ncc2cc1Nc1ncnc2[nH]c(C(=O)N(C)CCN(C)Cc3ccccc3)c(Br)c12` [Example 62, N-{2-[Benzyl(methyl)amino]ethyl}-5-bromo-4-[(6-methoxy-1H-indazol-5-yl)amino]-N-methyl-7H-pyrrolo[2,3-d]pyrimidine-6-carboxamide] displayed a concentration for half-maximal inhibition (IC50) of 4 nM.
The molecule `CCOC(=O)c1[nH]c2ncnc(Nc3cc4cn[nH]c4cc3OC(C)C)c2c1Br` [Example 63, Ethyl 5-bromo-4-{[6-(propan-2-yloxy)-1H-indazol-5-yl]amino}-7H-pyrrolo[2,3-d]pyrimidine-6-carboxylate] returned an IC50 of 1 nM.
For `COc1cc2[nH]ncc2cc1Nc1ncnc2[nH]c(C(=O)N3C[C@@H]4C[C@H]3CO4)c(Br)c12` [Example 64, {5-Bromo-4-[(6-methoxy-1H-indazol-5-yl)amino]-7H-pyrrolo[2,3-d]pyrimidin-6-yl}[(1S,4S)-2-oxa-5-azabicyclo[2.2.1]hept-5-yl]methanone] the value was 1 nM; for `COc1cc2[nH]ncc2cc1Nc1ncnc2[nH]c(C(=O)N3C[C@H]4C[C@@H]3CO4)c(Br)c12` [Example 65, {5-Bromo-4-[(6-methoxy-1H-indazol-5-yl)amino]-7H-pyrrolo[2,3-d]pyrimidin-6-yl}[(1R,4R)-2-oxa-5-azabicyclo[2.2.1]hept-5-yl]methanone], 4 nM.
`COc1cc2[nH]ncc2cc1Nc1ncnc2[nH]c(C(=O)N3CCC3)c(Br)c12` [Example 66, Azetidin-1-yl{5-bromo-4-[(6-methoxy-1H-indazol-5-yl)amino]-7H-pyrrolo[2,3-d]pyrimidin-6-yl}methanone] registered an IC50 of 2 nM.
For the molecule `COc1cc2[nH]ncc2cc1Nc1ncnc2[nH]c(C(=O)N3CCOC[C@H]3C)c(Br)c12` [Example 67, {5-Bromo-4-[(6-methoxy-1H-indazol-5-yl)amino]-7H-pyrrolo[2,3-d]pyrimidin-6-yl}[(3R)-3-methylmorpholin-4-yl]methanone], 3 nM corresponded to half-maximal inhibition (IC50).
Molecule `COc1cc2[nH]ncc2cc1Nc1ncnc2[nH]c(C(=O)NCC(=O)N(C)C)c(Br)c12` [Example 68, 5-Bromo-N-[2-(dimethylamino)-2-oxoethyl]-4-[(6-methoxy-1H-indazol-5-yl)amino]-7H-pyrrolo[2,3-d]pyrimidine-6-carboxamide] displayed an IC50 of 14 nM.

For the origin of these results see US20150252047A1, “SUBSTITUTED INDAZOL-PYRROLOPYRIMIDINES USEFUL IN THE TREATMENT OF HYPERPROLIFERATIVE DISEASES” (BAYER PHARMA AKTIENGESELLSCHAFT, priority 2012, published 2015).
